Experimental data as given in patent US20260015311A1, “AMINO LIPID COMPOUND, PREPARATION METHOD THEREFOR, AND USE THEREOF” (SHENZHEN SHENXIN BIOTECHNOLOGY CO., LTD., priority 2022, published 2026).
Values belong to the compound of their own block, whether it stands above or below them.

Legend:
[1] = test system: Fluc mRNA; assay: Activity of lipid nanoparticles of formulation method 2, Fluc mRNA by intramuscular administration; format: in vivo, BALB/c mice
Method: (§1) The formulation method was the same as the formulation method 1, except that the molar ratio of the amino lipid compounds to DSPC, cholesterol and PEG2000-DMG was 50:10:38.5:1.5.
(§2) 9 mice were assigned randomly to each group and injected with the lipid nanoparticles at a dosage of 0.5 mg/kg by three administration routes, i.e., subcutaneous, intramuscular and tail vein injection (three mice for each administration route). After 12 hours, D-luciferin potassium salt (200 μL, 10 mg/mL) was injected into each mouse through the tail vein. After 10 minutes, the total fluorescence intensity of each mouse was observed on a living imaging system (IVIS-200, Xenogen) and taken photographs for record. The expression intensities of Fluc mRNA delivered by representative amino lipid compounds through the three administration routes are shown in Table 2-4. MC3 was used as a control and SM102 was used as a comparative compound.
Preparation of Lipid Nanoparticles: LNPs were Prepared Using the Formulation Method 2 for Intramuscular Administration.
The measurement method was the same as that of Test Example 1.

[2] = test system: Fluc mRNA; assay: In vivo delivery of luciferase mRNA (Fluc mRNA) by lipid nanoparticles, living imaging; design: species or system BALB/c mice; conditions: after 12 hours, total fluorescence
Method: (§3) The amino lipid compounds of the present disclosure were mixed with DOPE, cholesterol, and PEG2000-DMG in a molar ratio of 45:10:42.5:2.5 and dissolved in absolute ethanol. By using a microinjection pump, the resultant ethanol solution and a sodium acetate solution (50 mM, pH=4.0) were mixed in a ratio of 1:3 in a microfluidic chip to prepare a crude solution of lipid nanoparticles, which were then dialyzed in 1×PBS at a controlled temperature of 4° C. for 6 h using a dialysis box (Fisher, MWCO 20,000), and filtered through a 0.22 μm microporous filter membrane before use.
as §1
The lipid nanoparticles prepared according to the above formulation method 1 or 2 were used in the biological experiments below for evaluating the performances of in vivo delivery of luciferase mRNA (Fluc mRNA). For the lipid nanoparticles obtained in the formulation method 1, the mass ratio of the amino lipid compounds to the luciferase mRNA was about 10:1, and the lipid nanoparticles were administered subcutaneously; and the lipid nanoparticles obtained in the formulation method 2 were administered by tail vein and intramuscular injection.
6-week-old female BALB/c mice weighed about 20 g were selected and fed in a SPF-grade feeding room. Animal tests were conducted strictly according to the guidelines of National Health institutions and the requirements of animal ethics.
as §2

[3] = Stability of lipid nanoparticles at 25° C., DLS particle size and PDI; format: physicochemical; conditions: for particle size: preparation day (week 0)
Method: as §3
(§4) Preparation of Lipid Nanoparticles: The Formulation Method 1 was Used to Prepare LNPs for Subcutaneous Administration.
Characterization of lipid nanoparticles: The particle size and PDI of the prepared lipid nanoparticles were measured by Nano-ZSZEN 3600 (Malvern). 40 μL of the LNP solution was taken for particle size measurement with circulation for three times, 30 seconds for each circulation.
(§5) The particle size measurements were carried out on the day of preparation (week 0), and after one week (week 1), two weeks (week 2), and four weeks (week 4) of storage at 25° C., and the expression intensities of Fluc mRNA delivered by subcutaneous administration were determined on the day of preparation (week 0) and after four weeks (week 4).

[4] = test system: Fluc mRNA; assay: Stability of lipid nanoparticles at 25° C., subcutaneous expression of Fluc mRNA; format: in vivo, mice; conditions: for Fluc expression change after four weeks: 25° C., week 4 versus week 0
Method: as §3, §2, §4, §5

[5] = test system: liver; assay: Targeting assay, fluorescence in liver after intramuscular injection; format: in vivo, mice; conditions: 15 μg mRNA per animal, 6 h after injection, dissected liver
Method: The lipids were mixed with DSPC, CHO-HP, M-DMG2000 (i.e. PEG2000-DMG) in a molar ratio of 50:10:38.5:1.5 and dissolved in absolute ethanol. mRNA was dissolved in a sodium acetate solution (0.2M, pH=5.0). The samples of various prescriptions were prepared at a water phase:alcohol phase=9 ml/min: 3 ml/min by using a microfluidic equipment (MPE-L2) and a chip (SN.000035). The two phases were mixed by injecting them into the microfluidic chip according to the interface requirements, and then the drug solution was loaded into a 100KD dialysis bags, immersed in a beaker containing 1 L dialysis solution and wrapped with aluminum foil, and dialyzed at 100 rpm for 1 h at room temperature, and then the dialysis solution was replaced and the dialysis continued for 1 h.
Formulation of dialysis solution: 1×PBS+8% sucrose solution: 2 packets of 1×PBS powder were taken into a beaker, dissolved with 2 L DEPC water, added with 160 g of sucrose additionally, and mixed to obtain the 1×PBS+8% sucrose solution.
The mass ratio of mRNA:Lipids in the obtained lipid nanoparticles were about 1:10.
Fluorescent protein-encoding mRNA-LNP preparations containing Compound (I-6-II), MC3 or SM102, respectively were prepared by using the formulation method of mRNA lipid nanoparticle (LNP) preparations as described above, selecting a fluorescent protein-encoding mRNA as the mRNA and the compound (I-6-II), MC3 or SM102, respectively as the lipid.
Each preparation to be tested was administered to mice by intramuscular injection, with each animal receiving 15 μg mRNA preparation sample. 6 h after sample injection, the mice were anesthetized by isoflurane inhalation, and injected intraperitoneally with 200 μL of D-Luciferin (concentration 10 mg/ml) luciferase development substrate. […] After development of living imaging of the intramuscularly injected animals, they were immediately dissected, followed by observation of the fluorescence in the liver immediately after the dissection.

[6] = subcutaneous administration, formulation method 1, 0.5 mg/kg
[7] = week 0, subcutaneous administration
[8] = week 4, storage at 25° C., subcutaneous administration
[9] = intramuscular injection, formulation method 2, 0.5 mg/kg
[10] = tail vein administration, formulation method 2, 0.5 mg/kg

SMILES: CCCCCCCCC(CCCCCC)OC(=O)CCCCCN(CCCCCC(=O)OC(CCCCCC)CCCCCCCC)C1CCC(O)CC1 (stereo not drawn) [Comparative compound 8]
Fluorescence intensity (expression intensity of Fluc mRNA) [1]: 2.1E + 06

particle size change after four weeks of storage ([3]; 25° C., week 4 versus week 0): did not increase significantly | particle size [3]: about 100 nm | Z-Average ([3]; week 0 (day of preparation)): 105 nm·days | PDI ([3]; week 1, storage at 25° C.): 0.05 | Z-Average ([3]; week 1, storage at 25° C.): 110 nm·days | PDI ([3]; week 2, storage at 25° C.): 0.06 | Z-Average ([3]; week 2, storage at 25° C.): 110 nm·days | Z-Average ([3]; week 4, storage at 25° C.): 115 nm·days
SMILES: CCCCCCCCCCCOC(=O)CCCCCN(CCCCCCCC(=O)OC(CCCCCCCC)CCCCCCCC)C1CCC(O)C1 (stereo not drawn) [Compound 5]
Fluorescence intensity (expression intensity of Fluc mRNA) [2, 6]: 1.4E + 07 | Fluc expression change after four weeks [4]: did not decrease significantly | Fluc Expression intensities [4, 7]: 1.4E+07 | Fluc Expression intensities [4, 8]: 1.1E+07

SMILES: CCCCCCCCCOC(=O)CCCCCCCN(CCCCCCCC(=O)OC(CCCCCCCC)CCCCCCCC)C1CCC(O)CC1 (stereo not drawn) [Comparative compound 6]
Fluorescence intensity (expression intensity of Fluc mRNA) [1]: 1.9E + 07 | Fluorescence intensity (expression intensity of Fluc mRNA) ([1]; listed as comparative compound 6): 1.9E+07

SMILES: CCCCCCCCCOC(=O)CCCCCCCN(CCCCCCCC(=O)OC(CCCCCCCC)CCCCCCCC)C1CCCC1O (stereo not drawn) [Comparative compound 1]
Fluorescence intensity (expression intensity of Fluc mRNA) [1]: 1.7E + 05

SMILES: CCCCCCCCCCCOC(=O)CCCCCN(CCCCCCCC(=O)OC(CCCCCCCC)CCCCCCCC)C1CCCCC1O (stereo not drawn) [Comparative compound 3]
Fluorescence intensity (expression intensity of Fluc mRNA) [1]: 2.9E + 05

particle size [3]: about 100 nm | Z-Average ([3]; week 0 (day of preparation)): 120 nm·days | PDI ([3]; week 1, storage at 25° C.): 0.16 | Z-Average ([3]; week 1, storage at 25° C.): 145 nm·days | PDI ([3]; week 2, storage at 25° C.): 0.21 | Z-Average ([3]; week 2, storage at 25° C.): 195 nm·days | PDI ([3]; week 4, storage at 25° C.): 0.28 | Z-Average ([3]; week 4, storage at 25° C.): 245 nm·days
SMILES: CCCCCCCCCOC(=O)CCCCCCCN(CCO)CCCCCCCC(=O)OC(CCCCCCCC)CCCCCCCC [SM102, reference compound]
Fluorescence intensity (expression intensity of Fluc mRNA) [2, 9]: 4.6E + 07 | Fluorescence intensity (expression intensity of Fluc mRNA) [2, 6]: 2.4E + 07 | Fluorescence intensity (expression intensity of Fluc mRNA) [2, 10]: 7.4E + 06 | Fluc expression change after four weeks [4]: decreased significantly | Fluc Expression intensities [4, 7]: 2.4E+07 | Fluc Expression intensities [4, 8]: 3.6E+06 | fluorescence intensity in liver [5]: 3.23E+06

SMILES: CCCCCCCCC(CCCCCC)OC(=O)CCCCCN(CCCCCC(=O)OC(CCCCCC)CCCCCCCC)C1CCCCC1O (stereo not drawn) [Comparative compound 4]
Fluorescence intensity (expression intensity of Fluc mRNA) [1]: 1.3E + 05

SMILES: CCCCCCCCC(CCCCCC)C(=O)OCCCCCCN(CCCCCCOC(=O)C(CCCCCC)CCCCCCCC)C1CCCC(O)C1 (stereo not drawn) [Compound 14]
Fluorescence intensity (expression intensity of Fluc mRNA) [2, 9]: 8.2E + 06 | Fluorescence intensity (expression intensity of Fluc mRNA) [2, 10]: 4.1E + 06

SMILES: CCCCCCCCCOC(=O)CCCCCCCN(CCCCCCCC(=O)OC(CCCCCCCC)CCCCCCCC)C1CCCC(C(=O)NCCCC)C1 (stereo not drawn) [Compound 21]
Fluorescence intensity (expression intensity of Fluc mRNA) [2, 6]: 1.1E + 06

SMILES: CCCCCCCCC(CCCCCC)OC(=O)CCCCCN(CCCCCCOC(=O)C(CCCCCC)CCCCCCCC)C1CCCC(O)C1 (stereo not drawn) [Compound 15]
Fluorescence intensity (expression intensity of Fluc mRNA) [2, 9]: 1.8E + 07 | Fluorescence intensity (expression intensity of Fluc mRNA) [2, 6]: 4.7E + 07 | Fluorescence intensity (expression intensity of Fluc mRNA) [2, 10]: 3.5E + 06
